Source: US20070212705A1, “P[…]-D CARBOX[…], EXPRESSION AND ACTIVITY” (priority 2005, published 2007)

Assays:
PA LDC = molecular target: T1, PA LDC (Pseudomonas aeruginosa, UniProt Q9HTZ1); assay: LDC assay (tetrapeptide Lys cleavage, Amplex Red detection of D-Ala) with purified PA LDC; assay type: biochemical; details: 10 minutes preincubation at room temperature before tetrapeptide substrate, read-out: IC50, inhibition of PA LDC
T1 construct: hexahistidine (pET14b N-terminal leader) (N); made in house; host or cells: E. coli BL21 (plasmid pPALDC1, pET14b)
Method: (§1) The assay consists of two parts: (i) cleavage of peptide substrate by LDC enzyme, and (ii) detection of the D-Ala cleavage product using Amplex Red. Conditions for E. coli LDC cleavage were established using a modification of conditions presented by Templin et al. (1999). The cleavage assay was assembled in black 96 half area flat bottom plates (Costar, 3694) (Corning Life Sciences, Acton, Mass.) and consisted of LDC at the indicated concentration in 30 μl (microliters) of 100 mM (milliMolar) Tris-HCl pH 8.5 containing 25 μg/ml of bovine serum albumin (B4287 Sigma, St. Louis, Mo.). “Tetrapeptide Lys” substrate L-Ala-γ-D-Glu-L-Lys-D-Ala was synthesized by SynPep, Inc. (Dublin, Calif.). […] Inhibitor compounds were added to the enzyme in 2 μl of 30% dimethyl sulfoxide and incubated for 10 minutes at room temperature, prior to the addition of tetrapeptide. The negative control received 2 μl of 30% dimethyl sulfoxide alone without any compound.
(§2) The principle of the detection system is oxidation of D-Ala by the enzyme D-amino acid oxidase to produces hydrogen peroxide. […] The detection reaction was incubated for 30 minutes at 37° C., and the plates were read on a SpectraMax Gemini (excitation 530 nm, emission 590 nm) (Molecular Devices, Sunnyvale, Calif.). […]

E. coli LDC = E. coli LDC (Escherichia coli, UniProt P76008); assay: LDC assay (tetrapeptide cleavage, Amplex Red detection) with E. coli LDC; assay type: biochemical
Method: as §1, §2

LDC = LDC (Escherichia coli, UniProt P76008); details: Templin et al., 1999; cited from earlier work
Chain of LDC (P76008 whole entry): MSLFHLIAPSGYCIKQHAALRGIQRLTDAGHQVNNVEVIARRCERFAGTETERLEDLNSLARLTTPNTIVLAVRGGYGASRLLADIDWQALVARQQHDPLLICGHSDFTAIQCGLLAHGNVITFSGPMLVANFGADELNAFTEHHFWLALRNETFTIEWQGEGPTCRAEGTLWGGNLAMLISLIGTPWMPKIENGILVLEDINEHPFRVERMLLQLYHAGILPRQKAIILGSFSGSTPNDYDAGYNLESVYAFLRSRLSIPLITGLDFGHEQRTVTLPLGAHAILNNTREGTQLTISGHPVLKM

Chain of E. coli LDC (P76008 whole entry): as above
T1 sequence (Q9HTZ1 whole entry): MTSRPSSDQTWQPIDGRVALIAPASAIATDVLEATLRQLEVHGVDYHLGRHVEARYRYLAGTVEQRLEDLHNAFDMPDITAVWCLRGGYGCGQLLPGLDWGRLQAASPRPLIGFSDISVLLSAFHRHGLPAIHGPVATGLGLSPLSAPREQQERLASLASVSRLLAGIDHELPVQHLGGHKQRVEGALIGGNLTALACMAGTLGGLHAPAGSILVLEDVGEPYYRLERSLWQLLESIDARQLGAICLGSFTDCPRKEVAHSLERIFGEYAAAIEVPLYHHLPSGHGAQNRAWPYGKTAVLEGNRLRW

| Structure (SMILES) | IC50 (PA LDC) | IC50 (E. coli LDC) | Inhibition of LDC (LDC) |
| --- | --- | --- | --- |
| O=C(Sc1nc2ccccc2nc1SC(=O)c1cc2ccccc2o1)c1cc2ccccc2o1 [2-Benzofurancarbothioic acid, S,S′-2,3-quinoxalinediyl ester] | 0.1 µM | 1.4 µM | – |
| O=C(O)C=CC(=O)c1ccc2c(c1)NC(=O)CO2 [3,4-dihydro-g,3-dioxo-2H-1,4-Benzoxazine-6-crotonic acid] | 170 µM | 12 µM | – |
| N[C@H](CCOc1ccc(/C(=N/O)C(=O)N[C@H]2CN([C@@H](C(=O)O)c3ccc(O)cc3)C2=O)cc1)C(=O)O [Nocardicin A] | – | – | inhibited |
